Results from patent publication US11951100B2, “Formulations of RBP4 inhibitors and methods of use” (Belite Bio, LLC, priority 2019, dated 2024).

What was measured:
[1] = Amorphous form: mDSC glass transition and TGA; assay type: physicochemical; conditions: preliminary TGA data
Experimental: To assess the feasibility of solid dispersion approach in formulation development, the glass transition temperature of the material was determined by modulated differential scanning calorimetry (mDSC). […] Therefore, as preparing an in-situ amorphous material in DSC pan, the end temperature should not ramp beyond 260° C. The amorphous samples were generated by heating the raw APIs from 25 to 250° C., followed by a rapid cooling to −60° C. The glass transition temperature (Tg) was measured by a slow heating of the generated amorphous samples from −60° C. to 250° C. The Tg for in-situ generated amorphous material from C and Form A was 93° C. and 97° C., respectively. The discrepancy in the two Tg values may simply due to the variation of water content in the samples or chemical purity.

[2] = system: Caco-2 monolayers; experiment: Permeability through Caco-2 monolayers; assay type: in vitro ADME
Experimental: Several biopharmaceutically relevant parameters of the API (Compound 1) were obtained for the API. […] Based on these two biopharmaceutical parameters, this compound is possibly a BCS Class II. Solubility enhancement is critical for bioavailability of the API for dosing. Therefore, to overcome the limitation from solubility, several experiments were conducted to assess various solubility enhancement approaches utilized in formulation development

[3] = Solvent shift assay in FaSSIF; assay type: physicochemical
Experimental: A solvent shift assay was performed in order to assess the effect of polymer excipients in improving supersaturation and sustainment in biorelevant media. Compound 1 was dissolved in DMSO to generate concentrated dissolved stock solution at 25 mg/mL. Stock API solution was then added to Fasted State Simulated Intestinal Fluid (FaSSIF) solution or FaSSIF solution containing predissolved polymer excipients to final concentration of compound 1 at 0.5 mg/mL. Ratios of Compound 1:polymer excipient in the final solution were either 20:80 or 40:60 (w/w). Samples were analyzed by HPLC to assess dynamic solubility of Compound 1 at various time points over a one hour period.

[4] = DSC of crystalline Compound 1; assay type: physicochemical; conditions: ramp 10.0° C./min, 35° C.-275° C.
Experimental: A sample of Compound 1 was analyzed by Differential Scanning Calorimetry using a TA Discovery DSC2500 with RCS90 chiller according to standard instrument procedures provided by manufacturer. Parameters used for the analysis are shown below in Table 3. Two replicates of the experiment were run with reproducible results. The resulting thermogram, shown in FIG. 10B, indicated a melting temperature (Tm) of Compound 1 of about 229° C. and no degradation up to 275° C.

[5] = system: Abcd4/rdh8 double knockout mice; experiment: Abcd4/rdh8 double knockout mouse model of macular degeneration; assay type: in vivo
Source text: FIG. 2 is a graph of bisretinoid A2E (pmol in the eye) and RBP4 (serum) levels for ABCA4−/−RDH8−/− mice either untreated, treated with vehicle, or treated with Compound 1.
FIG. 3 is a graph of outer nuclear layer (ONL) thickness (μm) as a function of distance (μm) from the optic nerve (ONH). ONL is the cell layer consisting of photoreceptor cell bodies (rods and cones). Dry AMD or STGD is often associated with thinning of the ONL and the loss of photoreceptor cells, indicating macular degeneration.
Abcd4/rdh8 double knockout mice were either untreated or treated with Compound 1. Wild type C57BL/6J mice were also used as a normal control. […] (FIG. 2). Diseases such as dry AMD or Stargardt are associated with thinning of the outer nuclear layer (ONL) of the eye and the loss of photoreceptor cells, indicating macular degeneration.

[6] = treated vs untreated Abcd4/rdh8 double knockout mice

CC(=O)N1CCc2c(C(=O)N3CCC(c4ccc(F)c(F)c4C(F)(F)F)CC3)n[nH]c2C1 [Compound 1, 1-(3-(4-(3,4-difluoro-2-(trifluoromethyl)phenyl)piperidine-1-carbonyl)-1,4,5,7-tetrahydro-6H-pyrazolo[3,4-c]pyridin-6-yl)ethan-1-one]
temperature at which continuous weight loss due to decomposition started (TGA) [1]: 260 °C | efflux ([2]; apical-to-basolateral and basolateral-to-apical): no significant efflux | absorption potential classification ([2]; apical-to-basolateral and basolateral-to-apical (Absorption Systems)): high | BCS classification ([2]; based on Log D7.4 and Caco-2 data, possibly): BCS Class II | Total Drug AUC FaSSIF ([3]; 0.5 mg/mL Compound 1 from DMSO stock into FaSSIF, one hour): 13100 min*μgA/mL | Total Drug C60 ([3]; FaSSIF, 60 min): 91.3 μgA/mL | no degradation up to (DSC) [4]: 275 °C | reduction in bisretinoid accumulation ([5]; bisretinoid A2E in the eye, ABCA4−/−RDH8−/− mice treated with Compound 1, p=0.003, unpaired t-test): 80% | outer nuclear layer (ONL) thickness ([5]; diseased group treated with Compound 1 vs diseased group): preserved | levels of A2E in the retina [5, 6]: significantly lower | levels of RBP4 in serum [5, 6]: lower
